Test systems include K-562 leukemia; SK-MEL-2 melanoma; MDA-MB-231 breast; NCI-H23 lung; OVCAR-5 ovarian; OVCAR-8 ovarian; HOP-92 NSCLC; IGROV1 ovarian; M14 melanoma; HCT-15 colon; A549 NSCLC; SK-OV-3 ovarian; SF-539 CNS; OVCAR-4 ovarian; CAKI-1 renal; DU-145 prostate; SF-295 CNS; SF-268 CNS; OVCAR-3 ovarian.
Common to all, as to experiment: NCI anticancer screen, dose series, 48 h

Each structure is given as a SMILES string.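 Tested at 5 concentrations; 48 h exposure; 96-well plates; endpoints linearly interpolated, else capped at highest concentration. TGI: concentration producing complete growth inhibition.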 Some results are limits rather than exact numbers.

For the molecule `O=C(CC(=O)n1nc(-c2ccccc2)c(N=Nc2ccc(Cl)cc2)c1-c1ccccc1)Nc1cccc(Cl)c1`, the TGI with K-562 leukemia, in the test on SK-MEL-2 melanoma, in the test on MDA-MB-231 breast, in the test on NCI-H23 lung, in the test on OVCAR-5 ovarian and with OVCAR-8 ovarian was greater than 100 µM in each case. Moreover, the TGI in the test with HOP-92 NSCLC, in the test with IGROV1 ovarian, in the test on M14 melanoma, in the test with HCT-15 colon and in the test with A549 NSCLC was greater than 100 µM in each case.
As to `C/C(=N\NC(=S)N1CC2CCC(CC2)C1)c1ccncn1`, the TGI came out at 5.39 µM with SK-MEL-2 melanoma; 2.4 µM in the test with NCI-H23 lung; 1.6 µM in the test with SK-OV-3 ovarian; 2.02 µM in the test on SF-539 CNS; 9.92 µM in the test with OVCAR-4 ovarian; 5.44 µM in the test on OVCAR-5 ovarian. Besides, the TGI with CAKI-1 renal is 2.44 µM; in the test on DU-145 prostate it was 6.26 µM; in the test with HOP-92 NSCLC it was 3.9 µM; in the test with IGROV1 ovarian, 3.78 µM; in the test with M14 melanoma it was 2.36 µM; in the test with SF-295 CNS it was 4.94 µM. The TGI with A549 NSCLC is 1.94 µM; in the test on SF-268 CNS, 3.62 µM.
In the case of `O=c1[nH]nc(-c2cccc(Br)c2)[nH]1`, the TGI with K-562 leukemia, with SK-MEL-2 melanoma, in the test on NCI-H23 lung, in the test with SF-539 CNS, with OVCAR-4 ovarian and in the test on OVCAR-5 ovarian was greater than 100 µM each time. In addition, the TGI with CAKI-1 renal, with OVCAR-8 ovarian, in the test with DU-145 prostate, in the test with HOP-92 NSCLC, in the test on IGROV1 ovarian and in the test on M14 melanoma was greater than 100 µM each time. Moreover, the TGI in the test with OVCAR-3 ovarian, with HCT-15 colon, with SF-295 CNS, with A549 NSCLC and in the test on SF-268 CNS was greater than 100 µM in each case.
Regarding `CC(=O)OC1CC2OC(Cc3ccccc32)O1` (centres undefined), the TGI in the test with K-562 leukemia is greater than 100 µM; with SK-MEL-2 melanoma it was greater than 100 µM; with NCI-H23 lung it was greater than 100 µM; in the test on SK-OV-3 ovarian it was greater than 100 µM; in the test on SF-539 CNS it was 81.6 µM; with OVCAR-8 ovarian, greater than 100 µM. Moreover, the TGI in the test with HOP-92 NSCLC, in the test with IGROV1 ovarian, in the test on M14 melanoma, in the test with OVCAR-3 ovarian, with SF-295 CNS and in the test on A549 NSCLC was greater than 100 µM in each case. This molecule gave a TGI with SF-268 CNS greater than 100 µM.
Regarding `CN(C)/N=C(\CCN1CCCC1)CC(c1ccccc1)c1c(O)c2ccccc2oc1=O` (centres undefined), the TGI in the test on K-562 leukemia, in the test on SK-MEL-2 melanoma, in the test on NCI-H23 lung, with SK-OV-3 ovarian, in the test with SF-539 CNS and with OVCAR-4 ovarian was greater than 100 µM throughout. In addition, the TGI in the test with OVCAR-5 ovarian, in the test on CAKI-1 renal, with HOP-92 NSCLC, in the test with IGROV1 ovarian, with M14 melanoma and with OVCAR-3 ovarian was greater than 100 µM in each case. Further, the TGI with SF-295 CNS, in the test with A549 NSCLC and in the test with SF-268 CNS was greater than 100 µM throughout.
Turning to `CC1=CC(=O)NP(=O)(Oc2ccc(C)cc2)N1` (centres undefined), the TGI in the test with K-562 leukemia, with SK-MEL-2 melanoma, in the test with NCI-H23 lung, in the test on SK-OV-3 ovarian, in the test on SF-539 CNS and in the test on OVCAR-4 ovarian was greater than 100 µM in each case. For the same molecule, the TGI in the test with OVCAR-5 ovarian, in the test on CAKI-1 renal, with OVCAR-8 ovarian, with HOP-92 NSCLC, in the test with IGROV1 ovarian and in the test on M14 melanoma was greater than 100 µM in each case. Also, the TGI in the test on OVCAR-3 ovarian, in the test with HCT-15 colon, in the test on SF-295 CNS and in the test on SF-268 CNS was greater than 100 µM in each case.
For `Cc1cc(NS(=O)(=O)c2ccc(N=Nc3c(O)c(C(=O)O)cc4ccccc34)cc2)nc(C)n1`, the TGI with K-562 leukemia, in the test with SK-MEL-2 melanoma, in the test with MDA-MB-231 breast, in the test with SK-OV-3 ovarian, in the test with SF-539 CNS and in the test on OVCAR-4 ovarian was greater than 100 µM each time. The TGI in the test on OVCAR-5 ovarian, in the test with CAKI-1 renal, in the test with OVCAR-8 ovarian, in the test on HOP-92 NSCLC, in the test on IGROV1 ovarian and in the test with M14 melanoma was greater than 100 µM throughout. The TGI in the test with OVCAR-3 ovarian, in the test on HCT-15 colon, in the test with SF-295 CNS, with A549 NSCLC and in the test with SF-268 CNS was greater than 100 µM in each case.
Take `CC1=CC(=O)NCCN1C`: the TGI in the test with K-562 leukemia, in the test with SK-MEL-2 melanoma, in the test with NCI-H23 lung, in the test with SK-OV-3 ovarian, with SF-539 CNS and in the test with OVCAR-4 ovarian was greater than 100 µM in each case. Moreover, the TGI in the test on OVCAR-5 ovarian, in the test on CAKI-1 renal, with OVCAR-8 ovarian, in the test on HOP-92 NSCLC, with IGROV1 ovarian and in the test with M14 melanoma was greater than 100 µM throughout. Also, the TGI with OVCAR-3 ovarian, with HCT-15 colon, in the test with SF-295 CNS, in the test on A549 NSCLC and with SF-268 CNS was greater than 100 µM each time.
Consider `Cc1ccccc1Nc1cn(COCc2ccccc2)c(=O)[nH]c1=O`, for which the TGI with K-562 leukemia, in the test on NCI-H23 lung, in the test on OVCAR-4 ovarian, in the test on OVCAR-5 ovarian, with CAKI-1 renal and with DU-145 prostate was greater than 100 µM in each case. Besides, the TGI in the test on HOP-92 NSCLC, in the test with IGROV1 ovarian, in the test on M14 melanoma, with OVCAR-3 ovarian, in the test with HCT-15 colon and in the test with SF-295 CNS was greater than 100 µM in each case. Moreover, the TGI with A549 NSCLC and in the test with SF-268 CNS was greater than 100 µM in each case.

For the origin of these results see PubChem BioAssay (NCI).
